The results in this text go back to US11420966B2 (ACLARIS THERAPEUTICS, INC., priority 2019, dated 2022).

The structures appear in SMILES notation. pIC50: −log10 of the molar value. Where only a bound is given, the exact number is not on record here.

The target in one assay is Tyk-2 (Homo sapiens (Human), UniProt P29597). Description: Tyk-2 enzyme activity assay (Thermo Fisher SelectScreen, Z-lyte). The conditions noted are these: read-out: Tyk-2 Inhibition IC50. It counts as biochemical. An outline of the steps:
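Z-lyte FRET assay: 3.75–15 ng TYK2 with […] Tyr 03 peptide in HEPES pH 7.0, MgCl2, EGTA, BRIJ-35; 1 h reaction, then development reagent. 11-point dose-response, 2% DMSO; IC50 via 4-parameter fit of emission ratio, background without enzyme.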

In another assay the target is JAK1 (Homo sapiens (Human), UniProt P23458). The assay is described as follows: JAK1 enzyme activity assay (Thermo Fisher SelectScreen, Z-lyte). It counts as biochemical. The following applies: read-out: JAK1 Inhibition IC50. An outline of the steps:
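Z-lyte assay with 21.2-91.5 ng JAK and […] Tyr 06 in 50 mM HEPES pH 7.0, 10 mM MgCl2, 1 mM EGTA, 0.01% BRIJ-35; 1 h kinase reaction, then development reagent. 11-point dose-response from […] to 0.34 nM, 2% DMSO vehicle; IC50 from 4-parameter logistic fit of emission ratio.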

The target in the next assay is JAK2 (Homo sapiens (Human), UniProt O60674). Description: JAK2 enzyme activity assay (Thermo Fisher SelectScreen, Z-lyte). It counts as biochemical. The following applies: read-out: JAK2 Inhibition IC50. An outline of the steps: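 Z-lyte FRET kinase assay: 0.12-0.5 ng JAK2 with […] Tyr 06 peptide in 50 mM HEPES pH 7.5, 0.01% BRIJ-35, 10 mM MgCl2, 1 mM EGTA, 1 h reaction before development reagent. 11-point dose-response from […] to 0.34 nM, 2% DMSO; IC50 from 4-parameter fit of emission ratio.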

The test system of assay [1] is IL-2 stimulated STAT5 phosphorylation on Tyr694 (JAK1/3). The assay is described as follows: JAK1/3 cellular target modulation: IL-2 stimulated phospho-STAT5 in PBMC. It counts as cell-based. The conditions noted are these: human PBMC, IL-2 25 ng/ml; read-out: IL2-STAT5 IC50. An outline of the steps:
(§1)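 Thawed human PBMC (200,000/well, RPMI/10% FBS) were preincubated with compound for 1 h at 37 °C, added from 10× stocks in 1% DMSO. Stimulation and read-out: IL-2 25 ng/ml, 5 min, pSTAT5 by MSD; IL-12 1.7 ng/ml, 25 min, pSTAT4 by MSD; IFNγ 10 ng/ml, 10 min, pSTAT1 by sandwich ELISA.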

Assay [2] deals with IFNγ stimulated STAT1 phosphorylation on Tyr701 (JAK1/2). Description: JAK1/2 cellular target modulation: IFNγ stimulated phospho-STAT1 in PBMC. The format is cell-based. The conditions noted are these: human PBMC, IFNγ 10 ng/ml; read-out: Infγ-STAT1 IC50. An outline of the steps:
as §1

Chain of JAK1 (P23458 whole entry): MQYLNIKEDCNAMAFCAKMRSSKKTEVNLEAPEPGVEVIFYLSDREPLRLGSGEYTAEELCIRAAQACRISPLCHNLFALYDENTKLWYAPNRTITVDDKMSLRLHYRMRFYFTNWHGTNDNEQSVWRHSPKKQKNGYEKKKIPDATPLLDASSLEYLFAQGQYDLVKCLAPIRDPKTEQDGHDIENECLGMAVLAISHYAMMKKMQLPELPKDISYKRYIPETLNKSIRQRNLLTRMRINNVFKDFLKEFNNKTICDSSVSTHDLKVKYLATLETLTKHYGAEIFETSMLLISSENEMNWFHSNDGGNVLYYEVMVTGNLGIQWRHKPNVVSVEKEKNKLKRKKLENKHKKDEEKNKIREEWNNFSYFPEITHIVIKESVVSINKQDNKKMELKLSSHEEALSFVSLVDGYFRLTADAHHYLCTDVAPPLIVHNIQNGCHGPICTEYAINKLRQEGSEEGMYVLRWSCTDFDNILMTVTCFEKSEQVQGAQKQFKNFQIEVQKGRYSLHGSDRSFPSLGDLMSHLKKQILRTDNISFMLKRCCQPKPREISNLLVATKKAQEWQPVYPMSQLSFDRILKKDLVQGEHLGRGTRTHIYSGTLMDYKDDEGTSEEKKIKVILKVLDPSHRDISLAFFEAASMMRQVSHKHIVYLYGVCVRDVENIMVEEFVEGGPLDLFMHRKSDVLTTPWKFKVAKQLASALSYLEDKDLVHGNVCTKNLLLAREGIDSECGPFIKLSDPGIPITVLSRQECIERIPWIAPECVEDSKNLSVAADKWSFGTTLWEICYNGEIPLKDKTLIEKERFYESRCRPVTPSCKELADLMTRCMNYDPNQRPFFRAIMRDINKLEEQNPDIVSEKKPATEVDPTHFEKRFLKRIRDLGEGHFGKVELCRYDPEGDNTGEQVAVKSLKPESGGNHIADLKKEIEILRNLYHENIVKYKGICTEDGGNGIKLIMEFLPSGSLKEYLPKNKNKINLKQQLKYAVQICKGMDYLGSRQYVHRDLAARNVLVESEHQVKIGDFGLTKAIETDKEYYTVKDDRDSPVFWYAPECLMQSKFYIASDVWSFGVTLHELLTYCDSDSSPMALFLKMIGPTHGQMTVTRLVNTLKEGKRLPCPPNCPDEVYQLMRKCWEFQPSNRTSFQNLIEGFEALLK
Chain of Tyk-2 (P29597 whole entry): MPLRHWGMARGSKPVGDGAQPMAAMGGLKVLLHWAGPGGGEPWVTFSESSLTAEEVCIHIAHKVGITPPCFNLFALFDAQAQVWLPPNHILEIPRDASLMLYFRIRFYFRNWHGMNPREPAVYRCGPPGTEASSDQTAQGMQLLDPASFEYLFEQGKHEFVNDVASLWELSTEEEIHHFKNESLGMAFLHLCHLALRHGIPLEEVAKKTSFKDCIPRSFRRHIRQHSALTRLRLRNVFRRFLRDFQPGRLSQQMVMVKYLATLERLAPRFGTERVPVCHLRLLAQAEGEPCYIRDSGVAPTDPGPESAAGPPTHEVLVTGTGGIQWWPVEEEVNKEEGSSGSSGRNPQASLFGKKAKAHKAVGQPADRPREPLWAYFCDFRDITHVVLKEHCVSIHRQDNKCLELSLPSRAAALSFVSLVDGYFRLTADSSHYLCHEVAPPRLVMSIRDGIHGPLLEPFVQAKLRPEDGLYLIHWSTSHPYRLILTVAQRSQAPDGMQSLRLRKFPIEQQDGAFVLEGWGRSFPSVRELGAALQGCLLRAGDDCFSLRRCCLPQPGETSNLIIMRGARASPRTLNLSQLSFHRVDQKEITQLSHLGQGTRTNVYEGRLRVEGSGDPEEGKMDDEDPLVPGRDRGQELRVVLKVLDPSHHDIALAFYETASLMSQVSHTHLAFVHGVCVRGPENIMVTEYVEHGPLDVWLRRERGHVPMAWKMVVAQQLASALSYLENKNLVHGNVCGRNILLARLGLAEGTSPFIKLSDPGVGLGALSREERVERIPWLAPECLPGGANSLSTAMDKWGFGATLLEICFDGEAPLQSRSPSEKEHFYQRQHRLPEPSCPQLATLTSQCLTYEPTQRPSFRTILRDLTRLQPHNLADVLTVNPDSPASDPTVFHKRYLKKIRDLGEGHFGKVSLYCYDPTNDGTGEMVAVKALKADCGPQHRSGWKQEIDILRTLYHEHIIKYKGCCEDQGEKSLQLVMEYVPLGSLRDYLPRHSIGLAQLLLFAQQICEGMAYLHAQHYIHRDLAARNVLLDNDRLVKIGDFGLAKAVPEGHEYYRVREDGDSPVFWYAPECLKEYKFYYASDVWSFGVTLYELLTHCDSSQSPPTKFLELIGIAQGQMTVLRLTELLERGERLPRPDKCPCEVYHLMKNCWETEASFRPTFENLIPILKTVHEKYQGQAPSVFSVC
Chain of JAK2 (O60674 whole entry): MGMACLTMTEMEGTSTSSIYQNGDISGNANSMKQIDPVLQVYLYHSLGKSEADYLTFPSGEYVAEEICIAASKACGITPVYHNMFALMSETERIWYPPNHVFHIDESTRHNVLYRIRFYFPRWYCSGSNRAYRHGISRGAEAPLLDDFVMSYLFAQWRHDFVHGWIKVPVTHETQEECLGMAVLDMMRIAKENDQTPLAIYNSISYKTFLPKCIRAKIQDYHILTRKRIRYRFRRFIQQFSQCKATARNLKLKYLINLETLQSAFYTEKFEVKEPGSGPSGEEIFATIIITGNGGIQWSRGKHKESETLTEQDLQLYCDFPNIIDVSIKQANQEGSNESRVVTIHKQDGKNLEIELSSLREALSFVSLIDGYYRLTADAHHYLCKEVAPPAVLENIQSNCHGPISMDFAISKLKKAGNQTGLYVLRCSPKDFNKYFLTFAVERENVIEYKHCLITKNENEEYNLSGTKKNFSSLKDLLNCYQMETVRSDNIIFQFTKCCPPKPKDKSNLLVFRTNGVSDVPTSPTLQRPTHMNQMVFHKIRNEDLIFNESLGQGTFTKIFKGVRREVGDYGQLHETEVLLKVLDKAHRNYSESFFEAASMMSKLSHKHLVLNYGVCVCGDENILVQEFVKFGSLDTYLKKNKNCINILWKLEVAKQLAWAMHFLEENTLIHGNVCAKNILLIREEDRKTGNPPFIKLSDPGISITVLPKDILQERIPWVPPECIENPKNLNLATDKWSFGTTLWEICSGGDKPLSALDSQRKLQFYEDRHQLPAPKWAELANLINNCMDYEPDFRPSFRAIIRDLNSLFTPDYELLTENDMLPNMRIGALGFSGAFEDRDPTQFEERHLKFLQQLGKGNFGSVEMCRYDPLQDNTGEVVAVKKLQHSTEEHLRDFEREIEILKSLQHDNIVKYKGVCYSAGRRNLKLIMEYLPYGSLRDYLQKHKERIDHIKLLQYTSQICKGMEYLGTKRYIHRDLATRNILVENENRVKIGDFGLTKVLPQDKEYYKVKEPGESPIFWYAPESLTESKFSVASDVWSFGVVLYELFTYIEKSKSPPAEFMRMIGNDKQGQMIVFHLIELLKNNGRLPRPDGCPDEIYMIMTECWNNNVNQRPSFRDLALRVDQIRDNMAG

Take `CNC(=O)c1coc(-c2cnc3[nH]ccc3c2N[C@@H]2C[C@H](C)CN(C(=O)CC#N)C2)n1` [Example 31, 2-(4-(((3R,5S)-1-(2-cyanoacetyl)-5-methylpiperidin-3-yl)amino)-1H-pyrrolo[2,3-b]pyridin-5-yl)-N-methyloxazole-4-carboxamide]: the pIC50 (in general, the negative decadic logarithm of the IC50, by convention in mol/L) at Tyk-2 was at least 8.00; at JAK1 it was at least 8.00; on JAK2, at least 8.00; in assay [1], at least 7.00; in assay [2], at least 7.00.
